Experiments:
Format in all cases: in vivo
Bemisia tabaci = Bemisia tabaci test (cotton leaves, spray, mirid bugs added); settings: 0.16 ppm, infested cotton leaves sprayed
Description: Solvent: 7 parts by weight of dimethylformamide Emulsifier: 2 parts by weight of alkylaryl polyglycol ether
To produce a suitable preparation of active compound, 1 part by weight of active compound is mixed with the stated amounts of solvent and emulsifier, and the concentrate is diluted with emulsifier-containing water to the desired concentration.
Cotton leaves (Gossypium hirsutum) infested by the whitefly (Bemisia tabacii) are treated by being sprayed with the preparation of active compound at the desired concentration.
After the desired period of time, a defined amount of mirid bugs (Macrolophus caliginosus) is added.
After the desired period of time, the kill of the pest in % is determined. 100% means that all whiteflies have been killed; 0% means that none of the whiteflies have been killed. The determined kill rates are entered into Colby's formula.

[1] = test system: Frankliniella occidentalis; assay: Greenhouse test on bell pepper against Western flower thrips; settings: on 15 open flowers
Description: (§1) In a greenhouse of a size of 4000 m^2 run in accordance with an IPM program (no insecticide used), bell pepper plants of the cultivar “Requena” on perlite substrates are, about 11 weeks after transplanting, tested comparatively against Western flower thrips (Frankliniella occidentalis) using spiromesifen (240 SC) and the non-beneficial-species-sparing standard formetanate (50 SP) at the stated application rates. Two applications are carried out at an interval of 14 days. Application is by knapsack sprayer. A water application rate of 1000 l/ha is applied.
(§2) Evaluations are carried out 7, 14, 21 and 28 days after the first treatment. As a natural enemy (beneficial species) of the Western flower thrips, use is made of Orius laevigalus from the family of the pirate bugs (Anthochoridae). Evaluation is carried out by counting the number of Western flower thrips on 15 open flowers. The number of beneficial species is also scored.

Orius laevigalus = assay: Greenhouse test on bell pepper: number of beneficial species scored
Description: as §1, §2

[2] = application 0.06 % (240 SC), 14 d after first treatment
[3] = application 0.06 % (240 SC), 21 d after first treatment
[4] = application 0.06 % (240 SC), 28 d after first treatment
[5] = application 0.2 % (50 SP), 7 d after first treatment
[6] = application 0.2 % (50 SP), 14 d after first treatment
[7] = application 0.2 % (50 SP), 21 d after first treatment
[8] = application 0.2 % (50 SP), 28 d after first treatment

| SMILES | Kill in % after 14 d (Bemisia tabaci) | Number Frankliniella occidentalis larvae + adults ([1]; application 0.06 % (240 SC), 7 d after first treatment, bell pepper greenhouse) | Number Frankliniella occidentalis larvae + adults [1, 2] | Number Frankliniella occidentalis larvae + adults [1, 3] | Number Frankliniella occidentalis larvae + adults [1, 4] | Number Orius laevigalus larvae + adults (Orius laevigalus; application 0.06 % (240 SC), 7 d after first treatment) | Number Orius laevigalus larvae + adults (Orius laevigalus; [2]) | Number Orius laevigalus larvae + adults (Orius laevigalus; [3]) | Number Orius laevigalus larvae + adults (Orius laevigalus; [4]) | Number Frankliniella occidentalis larvae + adults [1, 5] | Number Frankliniella occidentalis larvae + adults [1, 6] | Number Frankliniella occidentalis larvae + adults [1, 7] | Number Frankliniella occidentalis larvae + adults [1, 8] | Number Orius laevigalus larvae + adults (Orius laevigalus; [5]) | Number Orius laevigalus larvae + adults (Orius laevigalus; [6]) | Number Orius laevigalus larvae + adults (Orius laevigalus; [7]) | Number Orius laevigalus larvae + adults (Orius laevigalus; [8]) |
| --- | --- | --- | --- | --- | --- | --- | --- | --- | --- | --- | --- | --- | --- | --- | --- | --- | --- |
| Cc1cc(C)c(C2=C(OC(=O)CC(C)(C)C)C3(CCCC3)OC2=O)c(C)c1 [Spiromesifen (Ex. I-b-1), Spiromesifen] | 1.25% | 16.7 | 13.7 | 9 | 13.7 | 2.5 | 3.7 | 7.3 | 9 | – | – | – | – | – | – | – | – |
| CNC(=O)Oc1cccc(N=CN(C)C)c1 [Formetanate, reference compound] | – | – | – | – | – | – | – | – | – | 2 | 3.5 | 8 | 18.8 | 0.3 | 0 | 0.3 | 0.3 |

Source: US20100173987A1, “ACTIVE AGENT COMBINATIONS WITH INSECTICIDAL AND ACARICIDAL PROPERTIES” (priority 2006, published 2010)
